# According to patent US20170182047A9, “Post-Translational Regulation of Catalytic Activities of Cytochrome P450 46A1 and Uses Thereof” (The Board of Regents of the University of Texas System, priority 2007, published 2017):
# Key:
# [1] = molecular target: CYP46A1 (Homo sapiens, UniProt Q9Y6A2); assay: Spectral binding assay of antifungal azoles; design: Recombinant full-length human CYPs 46A1 and 27A1 and bovine CYP11A1 were expressed and purified; made in house; details: 0.3 μM purified P450; read-out: estimated Kd
# Experimental: Titrations of CYP46A1 were carried out in 50 mM potassium phosphate buffer (KPi), pH 7.2, containing 100 mM NaCl and 0.02% Cymal 6. CYPs 11A1 and 27A1 were in 50 mM KPi without any additives. Antifungal drugs were added from 0.2-5 mM stocks in 50% methanol. The apparent Kd and maximal absorbance change were estimated by non-linear least squares fitting using the quadratic form of the single-site binding equation (9).
# [2] = Brain levels of voriconazole; format: in vivo, C57/B6 J mice; details: after 5 daily intraperitoneal injections (60 mg/kg body weight)
# Experimental: The mice were sacrificed by cervical dislocation.
# Voriconazole was determined in serum and brain homogenates after the extraction with chloroform/methanol (2:1, v:v) and ethanol (10%, v/v, final), respectively. Voriconazole extract (100 μL) was then mixed with 200 μL acetonitrile, centrifuged at 10,000 g for 10 min, and 1 μL of the supernatant injected onto a Phenomenex Luna C18 3 μm column (100×2 mm) connected to the Agilent 1100 liquid chromatography-mass spectrometry system with an autosampler and solvent degasser. Gradient elution was with initial 35% B increasing to 100% B in 5 min (A=1% acetonitrile with 25 mM formic acid; B=100% acetonitrile with 25 mM formic acid). A structure analogue (UK115794, Pfizer Ltd) was used as internal standard. Ions were monitored in a positive mode at m/z 350 (voriconazole) and m/z 348 (internal standard).
# Sequence of CYP46A1 (Q9Y6A2 whole entry): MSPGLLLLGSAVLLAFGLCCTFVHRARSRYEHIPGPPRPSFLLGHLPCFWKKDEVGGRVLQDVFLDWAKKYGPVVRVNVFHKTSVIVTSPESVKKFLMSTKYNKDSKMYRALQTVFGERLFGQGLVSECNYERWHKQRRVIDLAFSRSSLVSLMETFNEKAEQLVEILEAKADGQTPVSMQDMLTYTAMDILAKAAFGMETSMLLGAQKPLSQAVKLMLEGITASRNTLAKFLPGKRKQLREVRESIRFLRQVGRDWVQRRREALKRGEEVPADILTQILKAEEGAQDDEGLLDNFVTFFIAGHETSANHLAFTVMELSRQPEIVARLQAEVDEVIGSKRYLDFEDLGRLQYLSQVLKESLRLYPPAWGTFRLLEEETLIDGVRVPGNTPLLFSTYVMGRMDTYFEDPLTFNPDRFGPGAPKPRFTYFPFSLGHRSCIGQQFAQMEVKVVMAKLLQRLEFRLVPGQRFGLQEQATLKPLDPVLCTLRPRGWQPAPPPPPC
structure (smiles),measurement,setting,value
C[C@@H](c1ncncc1F)[C@](O)(Cn1cncn1)c1ccc(F)cc1F [voriconazole],Kd,[1],50 nM
same,level of voriconazole in the brain,[2],43+8 μg/g wet weight
same,concentration at 5 days,"[2]; male, C57/B6 J, mouse, brain, read-out: level of voriconazole in the brain",123 µM
